Drawing on the supplement of paper PMC10307832, this text covers relative viability for five cell lines.

Assay in all cases: relative viability (nuclei count vs DMSO), 5 days (fraction); higher = more cells survive
Compound in the test “VE-821 + Luminespib”: CS(=O)(=O)c1ccc(-c2cnc(N)c(C(=O)Nc3ccccc3)n2)cc1 [VE-821] + CCNC(=O)c1noc(-c2cc(C(C)C)c(O)cc2O)c1-c1ccc(CN2CCOCC2)cc1 [Luminespib] (partner 0.01 µM)
In a few lines:
(§1)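 Relative viability divides the nuclei count in treated wells by that in vehicle wells. Lung cancer cell lines were seeded in 1536-well plates, dosed by pin tool the next day, and fixed and stained after 5 days in one step with final 0.05% Triton X-100, 1% formaldehyde and 1 ug/ml Hoechst. Dosing was a single drug or a fixed anchor-drug dose plus five library-drug doses (not always all listed) in √10 steps, and values are medians of duplicate plates imaged at 4×.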

Compound in the test “Vismodegib + Decitabine”: CS(=O)(=O)c1ccc(C(=O)Nc2ccc(Cl)c(-c3ccccn3)c2)c(Cl)c1 [Vismodegib] + Nc1ncn([C@H]2C[C@H](O)[C@@H](CO)O2)c(=O)n1 [Decitabine] (partner 2 µM)
In a few lines: as §1

Compound in the test “Vismodegib + Vorinostat”: CS(=O)(=O)c1ccc(C(=O)Nc2ccc(Cl)c(-c3ccccn3)c2)c(Cl)c1 [Vismodegib] + O=C(CCCCCCC(=O)Nc1ccccc1)NO [Vorinostat] (partner 1 µM)
In a few lines: as §1

Compound in the test “Ruxolitinib + Bortezomib”: N#CC[C@H](C1CCCC1)n1cc(-c2ncnc3[nH]ccc23)cn1 [Ruxolitinib] + CC(C)C[C@H](NC(=O)[C@H](Cc1ccccc1)NC(=O)c1cnccn1)B(O)O [Bortezomib] (partner 0.002 µM)
In a few lines:
as §1

For PC-3 [JPC-3], the relative viability was determined as 0.718 with VE-821 + Luminespib (first compound 0.08 µM); 0.718 with VE-821 + Luminespib (first compound 0.253 µM); 0.698 with VE-821 + Luminespib (first compound 0.8 µM); 0.726 with VE-821 + Luminespib (first compound 2.53 µM); 0.705 with VE-821 + Luminespib (first compound 8 µM); 0.863 with Vismodegib + Decitabine (first compound 0.08 µM). For the same cell line, the relative viability with Vismodegib + Decitabine (first compound 0.253 µM) was determined as 0.838; in the test with Vismodegib + Decitabine (first compound 0.8 µM), 0.904; in the test with Vismodegib + Decitabine (first compound 2.53 µM) it was 0.814; with Vismodegib + Decitabine (first compound 8 µM) it was 0.864; with Vismodegib + Vorinostat (first compound 0.08 µM), 0.858; with Vismodegib + Vorinostat (first compound 0.253 µM), 0.548. Also, the relative viability was 0.802 with Vismodegib + Vorinostat (first compound 0.8 µM); 0.924 with Vismodegib + Vorinostat (first compound 2.53 µM); 0.896 with Vismodegib + Vorinostat (first compound 8 µM); 0.63 in the test with Ruxolitinib + Bortezomib (first compound 0.08 µM); 0.819 with Ruxolitinib + Bortezomib (first compound 0.253 µM); 0.738 in the test with Ruxolitinib + Bortezomib (first compound 0.8 µM). Further, the relative viability in the test with Ruxolitinib + Bortezomib (first compound 2.53 µM) came out at 0.796; in the test with Ruxolitinib + Bortezomib (first compound 8 µM) it was 0.7.

For PC-14, the relative viability turned out to be 0.173 with VE-821 + Luminespib (first compound 0.08 µM); 0.19 with VE-821 + Luminespib (first compound 0.253 µM); 0.123 with VE-821 + Luminespib (first compound 0.8 µM); 0.241 with VE-821 + Luminespib (first compound 2.53 µM); 0.12 with VE-821 + Luminespib (first compound 8 µM); 0.224 with Vismodegib + Decitabine (first compound 0.08 µM). The relative viability came out at 0.198 with Vismodegib + Decitabine (first compound 0.253 µM); 0.237 with Vismodegib + Decitabine (first compound 0.8 µM); 0.199 in the test with Vismodegib + Decitabine (first compound 2.53 µM); 0.234 with Vismodegib + Decitabine (first compound 8 µM); 0.682 in the test with Vismodegib + Vorinostat (first compound 0.08 µM); 0.773 with Vismodegib + Vorinostat (first compound 0.253 µM). Moreover, the relative viability in the test with Vismodegib + Vorinostat (first compound 0.8 µM) turned out to be 0.764; with Vismodegib + Vorinostat (first compound 2.53 µM) it was 0.838; in the test with Vismodegib + Vorinostat (first compound 8 µM), 0.749; in the test with Ruxolitinib + Bortezomib (first compound 0.253 µM), 0.969; with Ruxolitinib + Bortezomib (first compound 0.8 µM), 0.875; with Ruxolitinib + Bortezomib (first compound 2.53 µM) it was 0.789. Further, in the test with Ruxolitinib + Bortezomib (first compound 8 µM), the relative viability was 0.603.

For the cell line RERF-LC-KJ, the relative viability with VE-821 + Luminespib (first compound 0.08 µM) was 1.31; with VE-821 + Luminespib (first compound 0.253 µM), 1.06; in the test with VE-821 + Luminespib (first compound 0.8 µM), 1.06; in the test with VE-821 + Luminespib (first compound 2.53 µM), 1.18; in the test with VE-821 + Luminespib (first compound 8 µM), 0.931; with Vismodegib + Decitabine (first compound 0.08 µM), 0.704. Further, the relative viability with Vismodegib + Decitabine (first compound 0.253 µM) is 0.7; with Vismodegib + Decitabine (first compound 0.8 µM), 0.765; with Vismodegib + Decitabine (first compound 2.53 µM) it was 0.654; with Vismodegib + Decitabine (first compound 8 µM), 0.633; with Vismodegib + Vorinostat (first compound 0.08 µM) it was 0.669; with Vismodegib + Vorinostat (first compound 0.253 µM), 0.603. Further, the relative viability was determined as 0.78 with Vismodegib + Vorinostat (first compound 0.8 µM); 0.772 in the test with Vismodegib + Vorinostat (first compound 2.53 µM); 0.659 in the test with Vismodegib + Vorinostat (first compound 8 µM); 1.09 with Ruxolitinib + Bortezomib (first compound 0.08 µM); 1.11 with Ruxolitinib + Bortezomib (first compound 0.253 µM); 1.2 with Ruxolitinib + Bortezomib (first compound 0.8 µM). Besides, the relative viability was 1 with Ruxolitinib + Bortezomib (first compound 2.53 µM) and 0.986 with Ruxolitinib + Bortezomib (first compound 8 µM).

Regarding SK-LU-1, the relative viability with VE-821 + Luminespib (first compound 0.08 µM) turned out to be 0.177; with VE-821 + Luminespib (first compound 0.253 µM) it was 0.203; with VE-821 + Luminespib (first compound 0.8 µM) it was 0.193; with VE-821 + Luminespib (first compound 2.53 µM), 0.203; in the test with VE-821 + Luminespib (first compound 8 µM), 0.164; with Vismodegib + Decitabine (first compound 0.08 µM), 0.619. Moreover, the relative viability came to 0.639 with Vismodegib + Decitabine (first compound 0.253 µM); 0.588 in the test with Vismodegib + Decitabine (first compound 0.8 µM); 0.618 with Vismodegib + Decitabine (first compound 2.53 µM); 0.607 with Vismodegib + Decitabine (first compound 8 µM); 0.718 in the test with Vismodegib + Vorinostat (first compound 0.08 µM); 0.827 in the test with Vismodegib + Vorinostat (first compound 0.253 µM). Further, the relative viability with Vismodegib + Vorinostat (first compound 0.8 µM) came to 0.784; with Vismodegib + Vorinostat (first compound 2.53 µM), 0.718; with Vismodegib + Vorinostat (first compound 8 µM), 0.842; with Ruxolitinib + Bortezomib (first compound 0.08 µM) it was 0.465; in the test with Ruxolitinib + Bortezomib (first compound 0.253 µM), 1.07; with Ruxolitinib + Bortezomib (first compound 0.8 µM), 1.3. The relative viability worked out at 1.03 in the test with Ruxolitinib + Bortezomib (first compound 2.53 µM) and 0.936 with Ruxolitinib + Bortezomib (first compound 8 µM).

Consider SW 1573, for which the relative viability worked out at 0.21 in the test with VE-821 + Luminespib (first compound 0.08 µM); 0.228 in the test with VE-821 + Luminespib (first compound 0.253 µM); 0.214 with VE-821 + Luminespib (first compound 0.8 µM); 0.226 in the test with VE-821 + Luminespib (first compound 2.53 µM); 0.165 in the test with VE-821 + Luminespib (first compound 8 µM); 0.425 in the test with Vismodegib + Decitabine (first compound 0.253 µM). Further, the relative viability was 0.509 with Vismodegib + Decitabine (first compound 0.8 µM); 0.519 with Vismodegib + Decitabine (first compound 2.53 µM); 0.615 with Vismodegib + Decitabine (first compound 8 µM); 0.77 in the test with Vismodegib + Vorinostat (first compound 0.08 µM); 0.564 with Vismodegib + Vorinostat (first compound 0.253 µM); 0.895 in the test with Vismodegib + Vorinostat (first compound 0.8 µM). In addition, the relative viability amounted to 0.636 with Vismodegib + Vorinostat (first compound 2.53 µM); 0.679 with Vismodegib + Vorinostat (first compound 8 µM); 0.981 with Ruxolitinib + Bortezomib (first compound 0.08 µM); 1.04 with Ruxolitinib + Bortezomib (first compound 0.253 µM); 1.01 in the test with Ruxolitinib + Bortezomib (first compound 0.8 µM); 0.939 with Ruxolitinib + Bortezomib (first compound 2.53 µM). Also, in the test with Ruxolitinib + Bortezomib (first compound 8 µM), the relative viability turned out to be 0.896.
